Legend:
[1] = target: T1, Mutant IDH1 R132H (Homo sapiens, UniProt O75874, R132H); assay: Mutant IDH1 biochemical assay: LC-MS detection of 2-HG; settings: mIDH R132H […], 5 uM NADPH, 100 uM alpha-KG, 45 minutes incubation; range where run multiple times; also: mIDH R132H 0.25 nM, 5 µM NADPH
T1 construct: His6 with PreScission site (N, cleaved yes); made in house; host or cells: E. coli Rosetta 2(DE3)
Text: Mutant IDH1 biochemical Sssay: LC-MS Detection of 2-HG.

[2] = target: T2, IDH1 (R132H) mutant (Homo sapiens, UniProt O75874, R132H); assay: Fluorescence biochemical assay (NADPH oxidation); settings: mIDH R132H 10 nM, 10 μM NADPH, 100 μM α-KG; range where run multiple times
T2 construct: His6 with PreScission site (N, cleaved yes); made in house; host or cells: E. coli Rosetta 2(DE3)
Experimental: The IDH1 (R132H) mutant catalyzes the reduced form of NADP+ (NADPH) and α-ketoglutarate (α-KG) to form nicotinamide adenine dinucleotide phosphate (NADP+) and R(−)-2-hydroxyglutarate (2HG). […] Reactions were monitored using the Perkin-Elmer Envision, Model 2101. […] The final reaction mixture contained 2.5% DMSO and test compounds with concentrations ranging 0.0000008-25 μM. The IDH1 (R132H) enzyme was used at a final concentration of 10 nM. Curve fitting for dose response […] determinations was done in the Helios module of the software package DAVID. The 4-parameter logistic model was used: y=min+((max−min)/1+(x/IC50)^shape)

T1 sequence (O75874 whole entry R132H): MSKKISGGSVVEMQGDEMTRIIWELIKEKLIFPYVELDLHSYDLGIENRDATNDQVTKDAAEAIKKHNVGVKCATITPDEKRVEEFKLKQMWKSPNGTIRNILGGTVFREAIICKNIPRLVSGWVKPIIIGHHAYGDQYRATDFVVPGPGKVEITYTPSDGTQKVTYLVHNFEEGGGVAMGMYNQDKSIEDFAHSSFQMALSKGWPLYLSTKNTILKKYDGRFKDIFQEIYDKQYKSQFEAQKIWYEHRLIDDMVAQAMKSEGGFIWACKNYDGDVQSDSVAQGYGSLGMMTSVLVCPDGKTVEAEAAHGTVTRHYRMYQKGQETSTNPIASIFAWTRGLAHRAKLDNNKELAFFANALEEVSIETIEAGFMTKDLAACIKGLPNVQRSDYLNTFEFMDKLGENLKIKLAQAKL
T2 sequence (O75874 whole entry R132H): as above

Compound	IC50 [1] [nM]	IC50 [2] [nM]
C[C@H](Nc1ncc(F)c(N2C(=O)OCC2(C)C2CC2)n1)c1ccc(CN2CCC(N(C)C)CC2)cc1F (single isomer, unassigned) [Example 57]	868	290
C[C@H](Nc1ncc(F)c(N2C(=O)OCC2(C)C2CC2)n1)c1ccc(CN2CCC(N(C)C)CC2)cc1F (single isomer, unassigned) [Example 58]	2720	971
C[C@H](Nc1ncc(F)c(N2C(=O)OCC2(C)C2CC2)n1)c1ccc(CN2CCC(C)(N)CC2)c(F)c1 (single isomer, unassigned) [Example 59]	922	183
C[C@H](Nc1ncc(F)c(N2C(=O)OCC2(C)C2CC2)n1)c1ccc(CN2CCC(C)(N)CC2)c(F)c1 (single isomer, unassigned) [Example 60]	1520	584
C[C@H](Nc1ncc(F)c(N2C(=O)OCC2(C)C2CC2)n1)c1ccc(CN2CCC(C)(N)CC2)cc1F (single isomer, unassigned) [Example 61]	696	236
C[C@H](Nc1ncc(F)c(N2C(=O)OCC2(C)C2CC2)n1)c1ccc(CN2CCC(C)(N)CC2)cc1F (single isomer, unassigned) [Example 62]	1620	748
C[C@H](Nc1nc(Cl)cc(N2C(=O)OC[C@@H]2C2CC2)n1)c1nc(-c2ccc(Cl)cc2)no1 [Example 3, (S)-3-(6-chloro-2-((S)-1-(3-(4-chlorophenyl)-1,2,4-oxadiazol-5-yl)ethylamino)pyrimidin-4-yl)-4-cyclopropyloxazolidin-2-one]	< 22.9	26.9
Cc1cc(N2C(=O)OC[C@@H]2C2CC2)nc(N[C@@H](C)c2cn(-c3ccc(Cl)cc3)cn2)n1 [Example 7, (S)-3-(2-(((S)-1-(1-(4-chlorophenyl)-1H-imidazol-4-yl)ethyl)amino)-6-methylpyrimidin-4-yl)-4-cyclopropyloxazolidin-2-one]	8.45	17.4
Cc1cc(N2C(=O)OC[C@@H]2C2CC2)nc(N[C@@H](C)c2nc(-c3ccc(Cl)cc3)no2)n1 [Example 8, (S)-3-(2-(((S)-1-(3-(4-chlorophenyl)-1,2,4-oxadiazol-5-yl)ethyl)amino)-6-methylpyrimidin-4-yl)-4-cyclopropyloxazolidin-2-one]	47.1	71.3
Cc1cc(N2C(=O)OC[C@@H]2C2CC2)nc(N[C@@H](C)c2cn(-c3ccc(Cl)cc3)nn2)n1 [Example 11, (S)-3-(2-(((S)-1-(1-(4-chlorophenyl)-1H-1,2,3-triazol-4-yl)ethyl)amino)-6-methylpyrimidin-4-yl)-4-cyclopropyloxazolidin-2-one]	76.7	35.9
C[C@H](Nc1nc(Cl)cc(N2C(=O)OC[C@@H]2C2CC2)n1)c1cc(F)c(-c2cnn(C)c2)cc1F [Example 18, (S)-3-(6-chloro-2-(((S)-1-(2,5-difluoro-4-(1-methyl-1H-pyrazol-4-yl)phenyl)ethyl)amino)pyrimidin-4-yl)-4-cyclopropyl oxazolidin-2-one]	15.8	23.8
C[C@H](Nc1nc(Cl)cc(N2C(=O)OC[C@@H]2C2CC2)n1)c1ccc(-c2cnn(C)c2)cc1F [Example 19, (S)-3-(6-chloro-2-(((S)-1-(2-fluoro-4-(1-methyl-1H-pyrazol-4-yl)phenyl)ethyl)amino)pyrimidin-4-yl)-4-cyclopropyloxazolidin-2-one]	57.2	44.3
C[C@H](Nc1ncc(F)c(N2C(=O)OCC2(C)C2CC2)n1)c1ccc(CN2CCC(N(C)C)CC2)c(F)c1 (stereo partly drawn) [Example 36, 4-cyclopropyl-3-(2-(((S)-1-(4-((4-(dimethylamino)piperidin-1-yl)methyl)-3-fluorophenyl)ethyl)amino)-5-fluoropyrimidin-4-yl)-4-methyloxazolidin-2-one]	963	–

Other lines, results leading:

IC50 [1] [nM]	IC50 [2] [nM]	Compound
189	235 to 253	C[C@H](Nc1nccc(N2C(=O)OCC2(C)C2CC2)n1)c1ccc(F)cc1 (single isomer, unassigned) [Example 45]
791	793 to 1210	C[C@H](Nc1nccc(N2C(=O)OCC2(C)C2CC2)n1)c1ccc(F)cc1 (single isomer, unassigned) [Example 46]
20.2 to 26	62.9	CC(Nc1nccc(N2C(=O)OC[C@]2(C)C2CC2)n1)c1nc(-c2ccc(Cl)cc2)no1 (single isomer, unassigned) [Example 50]
22.7 to 35.4	36.2	Cc1cc(-c2cnc(C(C)Nc3nccc(N4C(=O)OC[C@]4(C)C4CC4)n3)nc2)ccc1F (single isomer, unassigned) [Example 53]
2260	1890 to 2120	CC(Nc1nccc(N2C(=O)OC[C@]2(C)C2CC2)n1)c1nc(-c2ccc(Cl)c(OC(F)(F)F)c2)no1 (single isomer, unassigned) [Example 63]
25.2	10.3 to 42.4	CC(Nc1nccc(N2C(=O)OC[C@]2(C)C2CC2)n1)c1nc(-c2ccc(Cl)c(OC(F)(F)F)c2)no1 (single isomer, unassigned) [Example 64]
> 5000	> 25000	CC(Nc1nccc(N2C(=O)OC[C@@]2(C)C2CC2)n1)c1nc(-c2ccc(Cl)c(OC(F)(F)F)c2)no1 (single isomer, unassigned) [Example 65]
85	34.3 to 72.5	CC(Nc1nccc(N2C(=O)OC[C@@]2(C)C2CC2)n1)c1nc(-c2ccc(Cl)c(OC(F)(F)F)c2)no1 (single isomer, unassigned) [Example 66]
43.7	105	Cc1cc(N2C(=O)OC[C@@H]2C2CC2)nc(N[C@@H](C)c2cnc(-c3ccc(Cl)cc3)s2)n1 [Example 9, (S)-3-(2-(((S)-1-(2-(4-chlorophenyl)thiazol-5-yl)ethyl)amino)-6-methylpyrimidin-4-yl)-4-cyclopropyloxazolidin-2-one]
22.8	71.6	Cc1cc(N2C(=O)OC[C@@H]2C2CC2)nc(N[C@@H](C)c2cc(-c3ccc(Cl)cc3)on2)n1 [Example 10, (S)-3-(2-(((S)-1-(5-(4-chlorophenyl)isoxazol-3-yl)ethyl)amino)-6-methylpyrimidin-4-yl)-4-cyclopropyloxazolidin-2-one]
28.6	–	C[C@H](Nc1nccc(N2C(=O)OC[C@]2(C)C2CC2)n1)c1ccc(CN2CCC(C)(N(C)C)CC2)c(F)c1 [Example 37, (S)-4-cyclopropyl-3-(2-(((S)-1-(4-((4-(dimethylamino)-4-methylpiperidin-1-yl)methyl)-3-fluorophenyl)ethyl)amino)pyrimidin-4-yl)-4-methyloxazolidin-2-one]
217	–	C[C@H](Nc1nccc(N2C(=O)OC[C@]2(C)C2CC2)n1)c1ccc(CN2CCC(N)(CO)CC2)c(F)c1 [Example 42, (S)-3-(2-(((S)-1-(4-((4-amino-4-(hydroxymethyl)piperidin-1-yl)methyl)-3-fluorophenyl)ethyl)amino)pyrimidin-4-yl)-4-cyclopropyl-4-methyloxazolidin-2-one]
151	–	C[C@H](Nc1nccc(N2C(=O)OC[C@]2(C)C2CC2)n1)c1ccc(CN2CCC(C)(N)CC2)c(F)c1 [Example 43, (S)-3-(2-(((S)-1-(4-((4-amino-4-methylpiperidin-1-yl)methyl)-3-fluorophenyl)ethyl)amino)pyrimidin-4-yl)-4-cyclopropyl-4-methyloxazolidin-2-one]
